Patent publication US7413853B2, “Modulation of metabolism of steroids and xenobiotics” (The Salk Institute for Biological Studies, priority 2001, dated 2008)

Key:
SXR [1] = target: T1, SXR (Homo sapiens, UniProt O75469)
T1 sequence (O75469 1-434): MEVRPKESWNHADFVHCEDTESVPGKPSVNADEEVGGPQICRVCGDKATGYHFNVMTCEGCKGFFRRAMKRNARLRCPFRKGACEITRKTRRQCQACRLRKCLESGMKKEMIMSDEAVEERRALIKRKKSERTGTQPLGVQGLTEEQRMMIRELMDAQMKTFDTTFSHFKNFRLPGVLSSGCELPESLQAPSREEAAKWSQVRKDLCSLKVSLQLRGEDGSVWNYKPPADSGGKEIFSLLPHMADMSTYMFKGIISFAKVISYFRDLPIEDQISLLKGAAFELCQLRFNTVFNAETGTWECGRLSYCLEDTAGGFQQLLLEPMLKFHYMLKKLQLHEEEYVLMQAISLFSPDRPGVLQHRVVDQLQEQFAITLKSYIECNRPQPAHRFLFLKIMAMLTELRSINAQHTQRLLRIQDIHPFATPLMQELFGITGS
Excerpt: (§1) The reporter gene comprises a thymadine kinase (TK) linked to UGT1A6/DR-3 linked to a luciferace (LUC).
(§2) In an exemplary assay, a luciferase reporter gene containing the UGT1A6/DR-3 upstream of a minimal thymidine kinase (tk) promoter was constructed and transfected into monkey kidney CV-1 cells together with expression vectors for SXR, PXR, or CAR.
(§3) In FIG. 2, the tk-UGT1A6/DR3-Luc construct comprises a UGT inverted or direct repeat and/or a nuclear receptor binding site such that activation of the response element results in transcription of UGT. […] The response element can also comprise an inverse repeat of a suitable half site separated by a 6 nucleotide spacer, or an inverse repeat of a variant thereof, separated by a 6 nucleotide spacer.

PXR [2] = target: T2, PXR (Mus musculus, UniProt O54915); settings: tk-UGT1A6/DR-3-Luc, CV-1 cells
T2 sequence (O54915 1-431): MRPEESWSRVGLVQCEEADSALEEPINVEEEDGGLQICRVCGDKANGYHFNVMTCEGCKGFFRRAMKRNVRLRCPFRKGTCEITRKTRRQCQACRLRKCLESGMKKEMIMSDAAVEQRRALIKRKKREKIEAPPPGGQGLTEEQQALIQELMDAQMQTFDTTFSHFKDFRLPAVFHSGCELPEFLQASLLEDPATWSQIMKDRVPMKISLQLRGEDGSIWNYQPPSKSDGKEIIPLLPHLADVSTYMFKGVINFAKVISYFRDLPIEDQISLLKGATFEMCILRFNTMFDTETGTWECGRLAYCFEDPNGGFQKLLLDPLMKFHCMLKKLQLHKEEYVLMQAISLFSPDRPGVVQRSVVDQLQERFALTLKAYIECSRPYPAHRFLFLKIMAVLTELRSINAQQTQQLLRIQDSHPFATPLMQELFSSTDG
Excerpt: as §1, §2, §3

[3] = tested on: rat CYP3A23 gene cellular promoter
Method: (§4) The PCR-amplified sequences and target mutagenesis were confirmed by DNA sequencing.
(§5) All compounds were purchased from Sigma.
The above notion would predict: (1) The SXR/PXR response element is essential for the activation of CYP3A genes; and (2) The response elements of SXR and PXR are interchangeable. Therefore, mutagenesis analysis was performed on the promoter of the rat CYP3A23 gene to examine these predictions.

PXR [4] = target: T2, PXR; experiment: Activation of mouse receptor PXR by the panel of compounds
[5] = tested on: human CYP3A4 gene cellular promoter; settings: hepatocytes
Excerpt: as §4, §5

CYP3A11 gene = settings: mouse, in vivo
Method: The animals were allowed free access to food and water at all times. […] When necessary, mice were treated with a single intraperitoneal injection of DEX (50 mg/kg), PCN (40 mg/kg), or CTZ (50 mg/kg).
To examine the drug response of the endogenous liver CYP3A11 gene, animals were treated with single dose of compounds 24 h before sacrifice, and the CYP3A11 gene expression was evaluated by Northern blot analysis on liver total RNA. […] To detect specific transcripts, [^32P]-cDNA probes labeled by Random Primer Labeling Kit (Boringher) were hybridized to the membranes. The probe used to detect transgene contains both the SXR cDNA and the SV40 sequences. […] The filters were subsequently stripped and rehybridized with a murine glyceraldehyde-3-phosphate dehydrogenase (GAPDH) cDNA probe for RNA loading normalization.
Tissues were harvested 24 h later and subjected to Northern blot analysis. Membranes were probed with CYP3A11 cDNA probe, and were subsequently stripped and re-probed with GAPDH and transgene specific probes.

SXR [6] = experiment: Activation of SXR in transfection-based assays
Method: To characterize its response properties, a large variety of steroids, including intermediate and major products of known steroid biosynthetic pathways were tested.

activation of the UGT reporter by SXR (SXR [1]) | Compound | PXR-mediated UGT activation (PXR [2]) | PXR and/or SXR-mediated activation of mutated CYP3A23 promoter [3] | inducibility of CYP3A23 promoter with DR-3 replaced by IR-6 [3] | induction of CYP3A23 cellular promoter reporter [3] | activation of PXR (PXR [4]) | activation of CYP3A4 cellular promoter reporter [5] | induction of liver CYP3A11 expression (CYP3A11 gene) | activation of CYP3A23 cellular promoter reporter [3] | activation of SXR by compounds known to induce CYP3A4 (SXR [6]) | SXR activation of DR-3, DR-4 and DR-5 elements (SXR [6]; series of transfections) | activation of SXR (SXR [6]; transfection-based assays, steroids tested)
Significant activation | Clc1ccccc1C(c1ccccc1)(c1ccccc1)n1ccnc1 [CTZ, clotrimazole] | activation was seen | abolished | successfully rescue the inducibility | significant induction |  |  |  |  |  |  | 
 | CC(=O)[C@H]1[C@H](C#N)C[C@H]2[C@@H]3CC=C4C[C@@H](O)CC[C@]4(C)[C@H]3CC[C@@]21C [PCN, pregnenolone-16-carbonitrile] | activation was seen | abolished | successfully rescue the inducibility | remained unchanged | preferentially activated | can be activated | equally efficacious | most potent and efficacious tested activators | weak activator | among the best activators | activated
